From ChEMBL document CHEMBL1149799, “Bioactive peroxides as potential therapeutic agents” (Eur J Med Chem, 2008) come the findings set out here.

In brackets after ≈: the same amount, converted by molar mass.

Test [1] is described as follows: Cytotoxicity against human P833 cells. Format: functional, cell-based.
A further test relates to Plasmodium falciparum. The test is described as follows: Antimalarial activity against Plasmodium falciparum W2. Format: functional, organism-based.
In the next test the test system is WEHI-164. The test is described as follows: Cytotoxicity against mouse WEHI164 cells. Format: functional, cell-based.
For a further test, the system named is A549. In words: Cytotoxicity against human A549 cells. Format: functional, cell-based. The following applies: Homo sapiens, A549.
A short description of test [2]: Cytotoxicity against human H116 cells. Format: functional, cell-based.
Another test has as its system SK-BR-3. In words: Cytotoxicity against human SKBR3 cells. Format: functional, cell-based.
Another test has as its system T98G. The test is described as follows: Cytotoxicity against human T98G cells. Format: functional, cell-based.
In a further test the test system is PSN1. In words: Cytotoxicity against human PSN1 cells. Format: functional, cell-based.
Test [3] is described as follows: Cytotoxicity against human RXF486L cells. Format: functional, cell-based. The settings on record: RXF 486L.
The nature of test [4]: Cytotoxicity against human GXF251L cells. Format: functional, cell-based. The settings on record: GXF 251L.
Test [5] in a line: Cytotoxicity against human UXF1138L cells. Format: functional, cell-based. The following applies: UXF 1138L.
The nature of test [6]: Cytotoxicity against human LXF529L cells. Format: functional, cell-based. The settings on record: LXF 529L.
Test [7] is described as follows: Cytotoxicity against human MAXF401NL cells. Format: functional, cell-based. The following applies: MAXF 401NL.
Test [8] can be described thus: Cytotoxicity against human MAXF642NL cells. Format: functional, cell-based.
Another test relates to Human alphaherpesvirus 1. In words: Antiviral activity against herpes simplex virus type-1. Format: functional, organism-based.
Another test has as its system HT-29. The test is described as follows: Cytotoxicity against human HT29 cells. Format: functional, cell-based. The following applies: Homo sapiens, HT-29.
Test [9] relates to Vesicular stomatitis virus. The test is described as follows: Antiviral activity against Vesicular stomatitis virus. Format: functional, organism-based.
The next test deals with P388. In words: Cytotoxicity against mouse P388 cells. The settings on record: Mus musculus, P388; for EC50: read-out: ED50 (the source's name). Format: functional, cell-based.
Test [10] is described as follows: Cytotoxicity against mouse Ehrlich Ascites carcinoma by […] assay. Format: functional.
Test [11] can be described thus: Cytotoxicity against mouse Ehrlich Ascites carcinoma by clonogenic assay. Format: functional.
The nature of test [12]: Cytotoxicity against human CFUGM. Format: functional. The following applies: CFU-GM.
The subject of a further test is L1210. The test is described as follows: Cytotoxicity against mouse L1210 cells. Format: functional, cell-based. The settings on record: Mus musculus, L1210.
The subject of another test is KB. In words: Cytotoxicity against human KB cells. Format: functional, cell-based. The settings on record: Homo sapiens.
For the next test, the system named is EL4. The test is described as follows: Cytotoxicity against […] cells. Format: functional, cell-based. The following applies: Mus musculus.
Another test concerns LoVo. The test is described as follows: Cytotoxicity against human LoVo cells. Format: functional.
In the next test the test system is Candida albicans. The test is described as follows: Antifungal activity against Candida albicans. Format: functional.
The next test concerns DU-145. In words: Cytotoxicity against human DU145 cells. Format: functional, cell-based.
For a further test, the system named is SF-268. The test is described as follows: Cytotoxicity against human SF268 cells. Format: functional, cell-based.
A further test has as its system MCF7. In words: Cytotoxicity against human MCF7 cells. Format: functional, cell-based.
For a further test, the system named is KM-20L2. The test is described as follows: Cytotoxicity against human KM20L2 cells. Format: functional.
For another test, the system named is NCI-H460. In words: Cytotoxicity against human NCI-H460 cells. Format: functional, cell-based.
In another test the test system is BXPC-3. The test is described as follows: Cytotoxicity against human BXPC3 cells. Format: functional.
The test system of another test is PC-3. The test is described as follows: Cytotoxicity against human PC3 cells. Format: functional, cell-based.
A short description of test [13]: Cytotoxicity against human HERP3B cells. Format: functional.
Test [14] in a line: Cytotoxicity against human NCI60 cells. Format: functional.
A short description of test [15]: Cytotoxicity against mouse B16-F1cells. Format: functional, cell-based. The following applies: B16-F1.

For the compound `CC/C=C/[C@H](CC)C[C@]1(CC)C=C(CC)[C@H](CC(=O)O)OO1` [HATERUMADIOXIN A], in test [1], half-maximal inhibition (IC50) required 0.011 µg/mL (≈ 0.0354 µM).
`CCC(=O)/C=C/[C@@]1(CC)C[C@H](CC)[C@H](CC(=O)OC)OO1` [PLAKORTOLIDE I(M)] displayed an IC50 in the test with Plasmodium falciparum of 0.57 µg/mL (≈ 1.91 µM).
The compound `CCCCC(CC)C/C(C)=C/[C@@]1(CC)C[C@@H](CC)[C@@H](CC(=O)OC)OO1` (some centres undefined) yielded an IC50 with WEHI-164 of 9.5 µg/mL (≈ 25.8 µM).
With `CC(C)(O)C1=C[C@@]23CCC4C(C)(C)CCC[C@]4(C)[C@H]2C[C@H]1OO3` (some centres undefined), the half-maximal inhibitory concentration (IC50) (in the test with A549; in test [2]; in the test on SK-BR-3; in the test on T98G; in the test on PSN1) was over 5 µg/mL throughout.
As for `CCCCCC[C@@]1(CC)C=C(CC)[C@@H](CC(=O)OC)OO1`, the concentration for half-maximal inhibition (IC50) came out at 14.4 µg/mL (≈ 48.3 µM) in test [3]; 8.3 µg/mL (≈ 27.8 µM) in test [4]; 14.1 µg/mL (≈ 47.2 µM) in test [5]; 7.7 µg/mL (≈ 25.8 µM) in [6]; 14.9 µg/mL (≈ 49.9 µM) in test [7]; 7.2 µg/mL (≈ 24.1 µM) in [8].
Turning to `CCCC[C@H](CC)C[C@]1(CC)C=C(CC)[C@H](CC(=O)O)OO1` [HATERUMADIOXIN B], half-maximal inhibition in test [1] (IC50) required 0.0055 µg/mL (≈ 0.0176 µM).
Consider `C[C@H](C(=O)O)[C@@H]1CC[C@](C)(CC[C@]2(C)[C@H](C)CC[C@@]3(C)C(C)(C)CCC[C@]32O)OO1` [MYCAPEROXIDE A], for which the IC50 with A549 stood at 0.5 µg/mL (≈ 1.18 µM); in the test with Human alphaherpesvirus 1, 0.25 µg/mL (≈ 0.589 µM); in the test on HT-29 it was 0.5 µg/mL (≈ 1.18 µM); in test [9], 0.25 µg/mL (≈ 0.589 µM); in the test with P388, 0.5 µg/mL (≈ 1.18 µM).
`C=C1C(=O)O[C@@H]2O[C@@]3(C)CC[C@H]4[C@H](C)CC[C@@H]1[C@@]24OO3`: the IC50 is 11.3 µM in [10], 10 µM in test [11] and 1.7 µM in [12].
`CC/C=C/C(CC)C/C(C)=C/[C@]1(CC)C[C@@H](CC)[C@H](CC(=O)OC)OO1` (some centres undefined) registered an IC50 with WEHI-164 of 8.2 µg/mL (≈ 22.4 µM).
On to `CC(CCCC/C=C/CC/C=C\c1ccccc1)C[C@]1(C)C[C@](C)(CC(=O)O)OO1` (some centres undefined) [EPIPLAKINIC ACID C], for which the IC50 with A549 worked out at 2 µg/mL (≈ 4.82 µM); with L1210, 0.052 µg/mL (≈ 0.125 µM); with EL4, 4.6 µg/mL (≈ 11.1 µM); with P388, 2.5 µg/mL (≈ 6.03 µM). Moreover, the MIC with KB is 0.01 µg/mL (≈ 0.0241 µM); against LoVo, 1 µg/mL (≈ 2.41 µM).
Turning to `CCC/C=C/[C@]1(CC)C[C@H](CC)[C@H](CC(=O)O)OO1` [PLAKORTIDE L], the IC50 in the test with Plasmodium falciparum turned out to be 0.57 µg/mL (≈ 2.11 µM).
Consider `C[C@H](C(=O)O)[C@@H]1CC[C@@](C)(CC[C@@]2(O)[C@H](C)CC[C@@]3(C)C(C)(C)CCC[C@]23C)OO1` [MYCAPEROXIDE B], for which the IC50 worked out at 0.5 µg/mL (≈ 1.18 µM) with A549; 0.25 µg/mL (≈ 0.589 µM) in the test on Human alphaherpesvirus 1; 0.5 µg/mL (≈ 1.18 µM) with HT-29; 0.25 µg/mL (≈ 0.589 µM) in [9]; 0.5 µg/mL (≈ 1.18 µM) with P388.
In turn, `CC(CCCCCC/C=C\C=C\c1ccccc1)CC1(C)CC(C)(CC(=O)O)OO1` (single isomer, unassigned) came in with an MIC in the test on Candida albicans of 1.6 µg/mL (≈ 3.86 µM).
With `CC/C(=C\[C@@]1(CC)C[C@H](CC)[C@H](CC(=O)OC)OO1)[C@H]1O[C@H]1CC` [PLAKORSTATIN 1], the GI50 with DU-145 is reported as over 10; with SF-268, 1.8; with MCF7, over 10; in the test on KM-20L2 it was over 10; in the test on NCI-H460, over 10; with BXPC-3 it was over 10. In addition, the EC50 with P388 stood at 1.1 µg/mL (≈ 3.23 µM).
In the case of `CCC/C=C/[C@]1(CC)C[C@H](CC)[C@H](CC(=O)OC)OO1` [PLAKORTIDE K], 0.57 µg/mL (≈ 2 µM) corresponded to half-maximal inhibition in the test with Plasmodium falciparum (IC50).
Take `CC/C(=C\[C@@]1(CC)C[C@H](CC)[C@H](CC(=O)OC)OO1)[C@@H]1O[C@@H]1CC` [PLAKORSTATIN 2]: the GI50 is 1.7 in the test with DU-145; 1.6 with SF-268; 3.8 with MCF7; 6.7 in the test on KM-20L2; over 10 with NCI-H460; 6.4 in the test on BXPC-3. In addition, in the test on P388, the EC50 is 0.91 µg/mL (≈ 2.67 µM).
`CC(=O)O[C@H]1C(=O)[C@@]2(C)[C@H]([C@H](OC(=O)c3ccccc3)[C@]3(O)C[C@H](OC(=O)[C@H](O)[C@@H](NC(=O)c4ccccc4)c4ccccc4)C(C)=C1C3(C)C)[C@]1(OC(C)=O)CO[C@@H]1C[C@@H]2O` [PACLITAXEL]: the values for the Activity (in the test on PC-3; in test [13]) were 80 and 85, respectively.
Turning to `CC1(C)CC(C23C=CC(CO)(CCC2)OO3)CCC1Br` (centres undefined) [MAJAPOLENES A], in [14], the GI50 was 0.4 µM and net growth stopped (TGI) at 0.9 µM. The CC50 in [14] (read-out: LC50 (the source's name)) came to 2.8 µM.
Consider `CCOc1ccc(OOc2ccc(OCC)c3cc4c(cc23)[C@]2(C)CCC(=O)c3coc(c32)C4=O)c2cc3c(cc12)[C@@]1(C)CCC(=O)c2coc(c21)C3=O`, for which the Activity in the test on PC-3 was found to be 35; in test [13], 5.
With `CC(C)(OO)C1=C[C@@]23CCC4C(C)(C)CCC[C@]4(C)[C@H]2C[C@H]1OO3` (some centres undefined), the IC50 with A549 is 5 µg/mL (≈ 14.9 µM); in test [2], 2.5 µg/mL (≈ 7.43 µM); in the test on SK-BR-3 it was over 5 µg/mL; in the test on T98G, over 5 µg/mL; in the test with PSN1, 5 µg/mL (≈ 14.9 µM).
Take `CC(CCCCCC/C=C\C=C\c1ccccc1)C[C@]1(C)C[C@](C)(CC(=O)O)OO1` (some centres undefined): the MIC in the test on Candida albicans came out at 1.6 µg/mL (≈ 3.86 µM).
For `CC/C=C/C(CC)C/C(C)=C/[C@]1(CC)C[C@H](CC)[C@H](CC(=O)OC)OO1` (some centres undefined) [PLAKORTIDE H], in the test with WEHI-164, the IC50 was found to be 7.1 µg/mL (≈ 19.4 µM).
`COC(=O)C[C@H]1OO[C@](C)(C/C(C)=C/C=C/Cc2ccccc2)C[C@H]1C` [CAPUCINOATE A]: half-maximal inhibition in [15] (IC50) was put at 0.012 µg/mL (≈ 0.0335 µM).
With `COc1ccc(OOc2ccc(OC)c3cc4c(cc23)[C@]2(C)CCC(=O)c3coc(c32)C4=O)c2cc3c(cc12)[C@@]1(C)CCC(=O)c2coc(c21)C3=O`, the Activity came out at 56 with PC-3 and 5 in test [13].
As for `C[C@@H]1C[C@@H]([C@H](O)CC2CC(=O)NC(=O)C2)C(=O)[C@@H](C)C1` [CYCLOHEXIMIDE], the IC50 in the test with A549 came out at 0.1 µg/mL (≈ 0.355 µM); in test [2] it was 0.1 µg/mL (≈ 0.355 µM); with SK-BR-3, 0.05 µg/mL (≈ 0.178 µM); in the test on T98G, 2.5 µg/mL (≈ 8.89 µM); in the test on PSN1, 0.01 µg/mL (≈ 0.0355 µM).
As for `CCCCC[C@@]1(CC)C=C(CC)[C@@H](CC(=O)OC)OO1`, the IC50 in [3], in test [4], in test [5], in [6], in test [7] and in [8] was over 10 µg/mL each time.
`C[C@@H]1CC[C@H]2[C@@H](C)C(=O)O[C@@H]3O[C@@]4(C)CC[C@@H]1[C@]32OO4` [ARTEMISININ]: the results for the IC50 in [10], in test [11] and in [12] were over 723 µM, over 1000 µM and 385 µM, respectively.
Compound `COC(=O)C[C@H]1OO[C@](C)(C/C(C)=C/C(C)=C/Cc2ccccc2)C[C@H]1C` [CAPUCINOATE B] yielded an IC50 in [15] of 0.012 µg/mL (≈ 0.0322 µM).
